Experimental data from US9334264B2, “NAMPT inhibitors” (AbbVie Inc., priority 2012, dated 2016).

Columns and labels:
NAMPT = NAMPT (Homo sapiens, UniProt P43490); test: Time-Resolved Fluorescence Resonance Energy Transfer (TR-FRET) Binding Assay of NAMPT with PRPP; details: 200 μM PRPP and 2.5 mM ATP; 2 nM NAMPT, 2 nM probe, equilibrated 16 hours
How it was run: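 Compounds were equilibrated for 16 hours before TR-FRET readout, with substrates present (200 μM PRPP, 2.5 mM ATP) to permit enzymatic modification. Final mix: 2 nM His-tagged NAMPT, 2 nM probe, 1 nM Tb-anti-His antibody, 2% DMSO.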

[1] = target: NAMPT (human, recombinant, C-terminally His-tagged) (Homo sapiens, UniProt P43490); test: Time-Resolved Fluorescence Resonance Energy Transfer (TR-FRET) Binding Assay of NAMPT; details: absence of substrates; 6.8 nM NAMPT, 200 nM probe, equilibrated 3 hours
Sequence of NAMPT (human, recombinant, C-terminally His-tagged) (P43490 whole entry): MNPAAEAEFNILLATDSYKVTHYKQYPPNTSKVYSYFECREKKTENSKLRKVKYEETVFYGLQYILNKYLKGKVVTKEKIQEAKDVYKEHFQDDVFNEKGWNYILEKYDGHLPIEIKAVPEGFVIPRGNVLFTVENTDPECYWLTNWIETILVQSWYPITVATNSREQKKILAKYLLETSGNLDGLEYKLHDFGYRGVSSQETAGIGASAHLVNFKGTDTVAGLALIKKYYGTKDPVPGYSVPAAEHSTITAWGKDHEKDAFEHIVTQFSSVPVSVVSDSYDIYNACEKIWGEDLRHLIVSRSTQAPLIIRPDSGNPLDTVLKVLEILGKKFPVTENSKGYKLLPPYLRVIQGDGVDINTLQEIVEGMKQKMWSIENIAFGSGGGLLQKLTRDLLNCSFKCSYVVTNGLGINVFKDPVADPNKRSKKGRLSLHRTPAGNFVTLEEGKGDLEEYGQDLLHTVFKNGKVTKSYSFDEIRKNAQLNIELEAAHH
How it was run: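 Compounds (typically 11 half-log dilutions, 2% DMSO final) equilibrated 3 h at room temperature with 6.8 nM human C-His NAMPT, 1 nM Tb-anti-His antibody and 200 nM fluorescent competitive probe in pH 7.5 HEPES buffer. IC50 derived by logistic fit of normalized TR-FRET ratio (520/495 nm).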

Sequence of NAMPT (P43490 whole entry): as above

Row | Structure (SMILES) | IC50 (NAMPT) | IC50 [1]
1 | COCCC(=O)N(Cc1cccc(C)c1)c1ncc(C(=O)NCCCn2ccnc2)s1 [Example 120, N-[3-(1H-imidazol-1-yl)propyl]-2-[(3-methoxypropanoyl)(3-methylbenzyl)amino]-1,3-thiazole-5-carboxamide] | 2.29 nM | 3780 nM
2 | CNC(=O)CCN(C(=O)CCOC)c1ncc(C(=O)NCCCn2ccnc2)s1 [Example 200, N-[3-(1H-imidazol-1-yl)propyl]-2-{(3-methoxypropanoyl)[3-(methylamino)-3-oxopropyl]amino}-1,3-thiazole-5-carboxamide] | 0.747 nM | > 10000 nM
3 | COCCC(=O)N(Cc1cocn1)c1ncc(C(=O)NCCCn2ccnc2)s1 [Example 95, N-[3-(1H-imidazol-1-yl)propyl]-2-[(3-methoxypropanoyl)(1,3-oxazol-4-ylmethyl)amino]-1,3-thiazole-5-carboxamide] | 15.1 nM | 3890 nM
4 | CC(C)C(CC(=O)O)NC(=O)N(Cc1ccc(C#N)cc1)c1ncc(C(=O)NCCCn2ccnc2)s1 (stereo not shown) [Example 168, 3-{[(4-cyanobenzyl)(5-{[3-(1H-imidazol-1-yl)propyl]carbamoyl}-1,3-thiazol-2-yl)carbamoyl]amino}-4-methylpentanoic acid] | 1390 nM | > 10000 nM
5 | COCCC(=O)N(CC(O)c1ccc(OC)cc1)c1ncc(C(=O)NCCCn2ccnc2)s1 (stereo not shown) [Example 109, 2-{[2-hydroxy-2-(4-methoxyphenyl)ethyl](3-methoxypropanoyl)amino}-N-[3-(1H-imidazol-1-yl)propyl]-1,3-thiazole-5-carboxamide acetate (1:1)] | 3.74 nM | > 10000 nM
6 | COCCC(=O)N(CCc1cccc(OC)c1)c1ncc(C(=O)NCCCn2ccnc2)s1 [Example 107, N-[3-(1H-imidazol-1-yl)propyl]-2-{[2-(3-methoxyphenyl)ethyl](3-methoxypropanoyl)amino}-1,3-thiazole-5-carboxamide acetate (1:1)] | 2.24 nM | 814 nM
7 | NC(=O)C1CCCN(C(=O)N(Cc2ccc(F)cc2)c2ncc(C(=O)NCCCn3ccnc3)s2)C1 (stereo not shown) [Example 65, N^1-(4-fluorobenzyl)-N^1-(5-{[3-(1H-imidazol-1-yl)propyl]carbamoyl}-1,3-thiazol-2-yl)piperidine-1,3-dicarboxamide] | 5.37 nM | > 10000 nM
8 | O=C(NCCCn1ccnc1)c1cnc(N(Cc2ccc(Cl)cn2)C(=O)C2CCOC2)s1 (stereo not shown) [Example 206, 2-{[(5-chloropyridin-2-yl)methyl](tetrahydrofuran-3-ylcarbonyl)amino}-N-[3-(1H-imidazol-1-yl)propyl]-1,3-thiazole-5-carboxamide] | 0.633 nM | 5630 nM
9 | C=C[C@H](CO)NC(=O)N(Cc1ccc(C#N)cc1)c1ncc(C(=O)NCCCn2ccnc2)s1 [Example 148, 2-[(4-cyanobenzyl){[(2R)-1-hydroxybut-3-en-2-yl]carbamoyl}amino]-N-[3-(1H-imidazol-1-yl)propyl]-1,3-thiazole-5-carboxamide] | 60.6 nM | > 10000 nM
10 | COCCC(=O)N(CCc1ccccn1)c1ncc(C(=O)NCCCn2ccnc2)s1 [Example 101, N-[3-(1H-imidazol-1-yl)propyl]-2-{(3-methoxypropanoyl)[2-(pyridin-2-yl)ethyl]amino}-1,3-thiazole-5-carboxamide acetate (1:1)] | 2.84 nM | 5620 nM
11 | CC(C)(CO)CNC(=O)N(Cc1ccc(C#N)cc1)c1ncc(C(=O)NCCCn2ccnc2)s1 [Example 127, 2-{(4-cyanobenzyl)[(3-hydroxy-2,2-dimethylpropyl)carbamoyl]amino}-N-[3-(1H-imidazol-1-yl)propyl]-1,3-thiazole-5-carboxamide] | 0.533 nM | 3180 nM
12 | CC(C)N1CCN(CC(=O)N(Cc2ccc(F)cc2)c2ncc(C(=O)NCCCn3ccnc3)s2)CC1 [Example 31, 2-[(4-fluorobenzyl){[4-(propan-2-yl)piperazin-1-yl]acetyl}amino]-N-[3-(1H-imidazol-1-yl)propyl]-1,3-thiazole-5-carboxamide] | 0.893 nM | 3600 nM
13 | O=C(NCCCn1ccnc1)c1cnc(N(Cc2ccc(F)cc2)C(=O)N2CC(O)C2)s1 [Example 66, 2-{(4-fluorobenzyl)[(3-hydroxyazetidin-1-yl)carbonyl]amino}-N-[3-(1H-imidazol-1-yl)propyl]-1,3-thiazole-5-carboxamide] | 2.42 nM | > 10000 nM
14 | N#Cc1ccc(C(=O)N(Cc2ccc(F)cc2)c2ncc(C(=O)NCCCn3ccnc3)s2)cc1 [Example 11, 2-[(4-cyanobenzoyl)(4-fluorobenzyl)amino]-N-[3-(1H-imidazol-1-yl)propyl]-1,3-thiazole-5-carboxamide] | 0.47 nM | 476 nM
15 | COCCC(=O)N(CCc1ccc(Cl)cn1)c1ncc(C(=O)NCCCn2ccnc2)s1 [Example 207, 2-{[2-(5-chloropyridin-2-yl)ethyl](3-methoxypropanoyl)amino}-N-[3-(1H-imidazol-1-yl)propyl]-1,3-thiazole-5-carboxamide] | 0.331 nM | 3860 nM
16 | COCCNC(=O)N(Cc1ccc(F)cc1)c1ncc(C(=O)NCCCn2ccnc2)s1 [Example 82, 2-{(4-fluorobenzyl)[(2-methoxyethyl)carbamoyl]amino}-N-[3-(1H-imidazol-1-yl)propyl]-1,3-thiazole-5-carboxamide] | 1.72 nM | 7540 nM
17 | CC(C)CC(=O)N(CCc1ccc(F)cc1)c1ncc(C(=O)NCCCn2ccnc2)s1 [Example 45, 2-{[2-(4-fluorophenyl)ethyl](3-methylbutanoyl)amino}-N-[3-(1H-imidazol-1-yl)propyl]-1,3-thiazole-5-carboxamide] | 0.206 nM | 611 nM
18 | O=C(NCCCn1ccnc1)c1cnc(N(Cc2ccc(F)cc2)C(=O)NCC2OCCO2)s1 [Example 86, 2-{[(1,3-dioxolan-2-ylmethyl)carbamoyl](4-fluorobenzyl)amino}-N-[3-(1H-imidazol-1-yl)propyl]-1,3-thiazole-5-carboxamide] | 2.66 nM | > 10000 nM
19 | COCC(C)NC(=O)N(Cc1ccc(F)cc1)c1ncc(C(=O)NCCCn2ccnc2)s1 (stereo not shown) [Example 80, 2-{(4-fluorobenzyl)[(1-methoxypropan-2-yl)carbamoyl]amino}-N-[3-(1H-imidazol-1-yl)propyl]-1,3-thiazole-5-carboxamide] | 1.37 nM | 8020 nM

Further compounds by falling IC50 (NAMPT), results first:

Row | IC50 (NAMPT) | IC50 [1] | Structure (SMILES)
20 | 290 nM | 3160 nM | O=C(NCCCn1ccnc1)c1cnc(N(CCCN2CCCCC2)Cc2ccc(F)cc2)s1 [Example 8, 2-{(4-fluorobenzyl)[3-(piperidin-1-yl)propyl]amino}-N-[3-(1H-imidazol-1-yl)propyl]-1,3-thiazole-5-carboxamide]
21 | 217 nM | 4720 nM | O=C(NCCCn1ccnc1)c1cnc(N(Cc2ccc(F)cc2)Cc2ccccc2Cl)s1 [Example 16, 2-[(2-chlorobenzyl)(4-fluorobenzyl)amino]-N-[3-(1H-imidazol-1-yl)propyl]-1,3-thiazole-5-carboxamide]
22 | 5.87 nM | > 10000 nM | COCCC(=O)N(Cc1cnn(C)c1)c1ncc(C(=O)NCCCn2ccnc2)s1 [Example 111, N-[3-(1H-imidazol-1-yl)propyl]-2-{(3-methoxypropanoyl)[(1-methyl-1H-pyrazol-4-yl)methyl]amino}-1,3-thiazole-5-carboxamide]
23 | 1.78 nM | 5280 nM | O=C(NCCCn1ccnc1)c1cnc(N(Cc2ccc(F)cc2)C(=O)NCC2CCCCO2)s1 (stereo not shown) [Example 81, 2-{(4-fluorobenzyl)[(tetrahydro-2H-pyran-2-ylmethyl)carbamoyl]amino}-N-[3-(1H-imidazol-1-yl)propyl]-1,3-thiazole-5-carboxamide]
24 | 0.938 nM | 2390 nM | CN(C)C1CCN(CC(=O)N(Cc2ccc(F)cc2)c2ncc(C(=O)NCCCn3ccnc3)s2)C1 (stereo not shown) [Example 39, 2-[{[3-(dimethylamino)pyrrolidin-1-yl]acetyl}(4-fluorobenzyl)amino]-N-[3-(1H-imidazol-1-yl)propyl]-1,3-thiazole-5-carboxamide]
25 | 0.527 nM | 58.9 nM | CC(C)CCN(C(=O)[C@@H](C)Oc1ccccc1)c1ncc(C(=O)NCCCn2ccnc2)s1 [Example 133, N-[3-(1H-imidazol-1-yl)propyl]-2-{(3-methylbutyl)[(2R)-2-phenoxypropanoyl]amino}-1,3-thiazole-5-carboxamide]
26 | 0.502 nM | 7570 nM | O=C(NCCCn1ccnc1)c1cnc(N(Cc2ccc(F)cc2)C(=O)CN2CCN(CC3CC3)CC2)s1 [Example 34, 2-[{[4-(cyclopropylmethyl)piperazin-1-yl]acetyl}(4-fluorobenzyl)amino]-N-[3-(1H-imidazol-1-yl)propyl]-1,3-thiazole-5-carboxamide]
27 | 0.241 nM | 303 nM | O=C(NCCCn1ccnc1)c1cnc(N(Cc2ccc(F)cc2)C(=O)c2cccc(Cl)c2)s1 [Example 12, 2-[(3-chlorobenzoyl)(4-fluorobenzyl)amino]-N-[3-(1H-imidazol-1-yl)propyl]-1,3-thiazole-5-carboxamide]
28 | 0.195 nM | 356 nM | COCCN(C(=O)Cc1ccc(N)cc1)c1ncc(C(=O)NCCCn2ccnc2)s1 [Example 188, 2-{[(4-aminophenyl)acetyl](2-methoxyethyl)amino}-N-[3-(1H-imidazol-1-yl)propyl]-1,3-thiazole-5-carboxamide]
29 | 0.169 nM | 93.7 nM | Cc1cc(C(=O)N(CCC(C)C)c2ncc(C(=O)NCCCn3ccnc3)s2)no1 [Example 135, N-(5-{[3-(1H-imidazol-1-yl)propyl]carbamoyl}-1,3-thiazol-2-yl)-5-methyl-N-(3-methylbutyl)-1,2-oxazole-3-carboxamide]
